For seven compounds, IC50 results are on record in paper PMC12178155 (RSC Advances, 2025).

One assay has as its target EGFR (Homo sapiens, UniProt P00533). Kind of assay: in vitro EGFR inhibition. The format is biochemical.
The subject of a further assay is tubulin. Kind of assay: tubulin polymerization inhibition. Format: biochemical. The settings on record: read-out: Tubulin polymerization IC50.

The IC50 is the concentration at which inhibition is half-maximal.

Sequence of EGFR (P00533 25-1210): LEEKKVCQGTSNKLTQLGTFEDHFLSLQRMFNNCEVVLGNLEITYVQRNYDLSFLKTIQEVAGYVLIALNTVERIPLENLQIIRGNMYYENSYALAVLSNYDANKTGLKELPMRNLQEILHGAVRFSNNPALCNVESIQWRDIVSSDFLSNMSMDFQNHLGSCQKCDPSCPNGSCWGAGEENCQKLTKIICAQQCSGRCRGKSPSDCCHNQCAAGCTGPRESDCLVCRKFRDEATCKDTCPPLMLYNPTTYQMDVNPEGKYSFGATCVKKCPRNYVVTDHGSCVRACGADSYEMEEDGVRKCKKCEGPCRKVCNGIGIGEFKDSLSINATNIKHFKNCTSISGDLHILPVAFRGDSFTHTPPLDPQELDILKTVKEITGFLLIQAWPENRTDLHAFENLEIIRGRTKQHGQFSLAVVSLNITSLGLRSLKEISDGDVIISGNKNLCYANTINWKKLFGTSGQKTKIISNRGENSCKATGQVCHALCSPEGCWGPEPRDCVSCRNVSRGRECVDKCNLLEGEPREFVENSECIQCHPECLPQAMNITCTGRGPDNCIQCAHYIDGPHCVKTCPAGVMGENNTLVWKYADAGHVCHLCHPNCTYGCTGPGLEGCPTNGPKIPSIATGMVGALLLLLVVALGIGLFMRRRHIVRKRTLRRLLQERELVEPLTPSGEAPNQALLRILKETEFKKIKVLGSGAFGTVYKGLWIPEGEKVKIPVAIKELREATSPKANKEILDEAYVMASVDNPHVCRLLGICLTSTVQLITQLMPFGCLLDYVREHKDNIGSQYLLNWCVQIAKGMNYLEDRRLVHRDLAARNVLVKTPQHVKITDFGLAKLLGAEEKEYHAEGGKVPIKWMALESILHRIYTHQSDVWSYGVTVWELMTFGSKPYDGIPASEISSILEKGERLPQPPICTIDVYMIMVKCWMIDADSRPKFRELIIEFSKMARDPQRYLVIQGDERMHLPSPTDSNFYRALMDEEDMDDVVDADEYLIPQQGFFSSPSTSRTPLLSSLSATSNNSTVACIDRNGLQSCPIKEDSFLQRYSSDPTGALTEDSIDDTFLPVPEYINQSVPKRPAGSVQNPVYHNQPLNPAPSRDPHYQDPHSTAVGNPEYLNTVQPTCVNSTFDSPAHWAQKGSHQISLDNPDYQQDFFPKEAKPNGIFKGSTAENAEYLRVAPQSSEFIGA

`O=C1Nc2ccc(Cl)cc2/C1=C\C(=O)c1ccc(O)cc1` [4a, (E)-5-Chloro-3-(2-(4-hydroxyphenyl)-2-oxoethylidene)indolin-2-one]: on EGFR, it took 0.1 ± 0.07 µM to reach half-maximal inhibition (IC50).
On the same count and under the same terms, next, `Nc1ccc(C(=O)C=C2C(=O)Nc3ccc(Cl)cc32)cc1` [4b]: 0.05 ± 0.06 µM.
As to `O=C1Nc2ccc(Cl)cc2C12CC(c1ccc(O)cc1)=NN2` (stereo not drawn) [5a, 5-Chloro-5′-(4-hydroxyphenyl)-2′,4′-dihydrospiro[indoline-3,3′-pyrazol]-2-one], the IC50 was determined as 0.09 ± 0.05 µM at EGFR and 3.85 ± 0.09 µM in the assay with tubulin.
Regarding `Nc1ccc(C2=NNC3(C2)C(=O)Nc2ccc(Cl)cc23)cc1` (stereo not drawn) [5b, 5′-(4-Aminophenyl)-5-chloro-2′,4′-dihydrospiro[indoline-3,3′-pyrazol]-2-one], the figures for the half-maximal inhibitory concentration (IC50) on EGFR and in the assay on tubulin were 0.07 ± 0.09 µM and 4.35 ± 0.11 µM, respectively.
Consider `COc1ccc(C2=NNC3(C2)C(=O)Nc2ccc(Cl)cc23)cc1` (stereo not drawn) [5c, 5-Chloro-5′-(4-methoxyphenyl)-2′,4′-dihydrospiro[indoline-3,3′-pyrazol]-2-one], for which 0.08 ± 0.08 µM corresponded to half-maximal inhibition on EGFR (IC50).
At EGFR, `O=C1Nc2ccc(Cl)cc2C12CC(c1ccc(Cl)cc1)=NN2` (stereo not drawn) [5d, 5-Chloro-5′-(4-chlorophenyl)-2′,4′-dihydrospiro[indoline-3,3′-pyrazol]-2-one] had a concentration for half-maximal inhibition (IC50) of 0.04 ± 0.09 µM.
Turning to “Tubulin polymerization inhibitor II [reference compound]”, the half-inhibitory concentration (IC50) with tubulin came out at 4.5 ± 0.13 µM.
